Measured values taken from US9328112B2, “Tetracyclic CDK9 kinase inhibitors” (AbbVie Inc., priority 2014, dated 2016).
pIC50: −log10 of the molar value.

Assays:
[1] = system: H929 cells; assay: Cell viability assay (Cell TiterGlo); assay type: cell-based; settings: Homo sapiens, NCI-H929, 24 hours at 37° C., Cell TiterGlo luminescence
Protocol: The cell viability assay was performed using H929 cells. Cells were seeded in 96-well plates at 10,000 cells/well and, after overnight incubation, treated with compounds in a dose response of 3-fold dilutions from 10 μM to 0.005 μM ([…], 0.1% final DMSO concentration). After 24 hours at 37° C., cell viability was measured using Cell TiterGlo reagent (Promega) with a luminescence reader.

[2] = target: CDK9/Cyclin T1 (Homo sapiens (Human), UniProt P50750); assay: CDK9 enzyme assay (LANCE ULight TR-FRET kinase assay); assay type: biochemical; settings: 1000 μM ATP, 100 nM ULight MBP, kinase reaction 1 hour
Procedure, shortened: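 Human CDK9/Cyclin T1 phosphorylating 100 nM ULight-MBP with 1000 μM ATP in HEPES/MgCl2 buffer, 1 h reaction. Stopped with 20 mM EDTA plus 0.5 nM Eu anti-phospho-MBP antibody, incubated 1 h, read by TR-FRET (ex 320 nm, em 615/665 nm).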

CDK9/Cyclin T1, sequence (P50750 whole entry): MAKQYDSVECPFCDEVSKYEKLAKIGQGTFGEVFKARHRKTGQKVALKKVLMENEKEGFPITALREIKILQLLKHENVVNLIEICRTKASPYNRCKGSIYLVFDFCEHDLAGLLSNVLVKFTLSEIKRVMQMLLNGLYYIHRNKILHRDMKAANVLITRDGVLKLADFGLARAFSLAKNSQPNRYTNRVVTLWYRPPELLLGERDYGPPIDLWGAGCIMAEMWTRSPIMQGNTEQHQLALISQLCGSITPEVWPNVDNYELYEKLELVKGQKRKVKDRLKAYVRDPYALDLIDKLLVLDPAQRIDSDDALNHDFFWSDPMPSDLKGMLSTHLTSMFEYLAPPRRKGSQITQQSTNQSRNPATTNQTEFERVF
CDK9/Cyclin T1, sequence (O60563 whole entry partner): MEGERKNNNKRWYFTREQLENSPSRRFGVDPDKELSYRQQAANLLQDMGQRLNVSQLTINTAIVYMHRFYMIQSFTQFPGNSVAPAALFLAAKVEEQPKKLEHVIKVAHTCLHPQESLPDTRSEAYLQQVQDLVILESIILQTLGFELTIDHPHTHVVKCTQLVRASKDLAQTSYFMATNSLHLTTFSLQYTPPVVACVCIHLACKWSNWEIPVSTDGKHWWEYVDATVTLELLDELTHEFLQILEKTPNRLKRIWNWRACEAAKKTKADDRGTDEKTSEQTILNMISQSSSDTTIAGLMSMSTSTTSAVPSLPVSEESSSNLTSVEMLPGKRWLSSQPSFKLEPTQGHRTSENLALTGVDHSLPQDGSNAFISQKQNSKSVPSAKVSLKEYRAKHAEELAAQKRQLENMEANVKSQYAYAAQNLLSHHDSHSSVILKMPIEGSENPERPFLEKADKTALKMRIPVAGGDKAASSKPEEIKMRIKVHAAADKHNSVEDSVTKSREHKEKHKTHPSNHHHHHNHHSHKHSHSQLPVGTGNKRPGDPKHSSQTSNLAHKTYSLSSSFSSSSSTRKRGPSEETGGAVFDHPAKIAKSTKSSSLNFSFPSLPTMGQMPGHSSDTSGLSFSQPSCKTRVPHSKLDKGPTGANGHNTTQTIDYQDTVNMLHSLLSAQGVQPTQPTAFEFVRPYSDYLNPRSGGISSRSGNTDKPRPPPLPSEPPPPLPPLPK

Compound	pIC50 [1]	pIC50 [2]
CN1Cc2c(C3=C[C@H]4CC[C@@H](C3)N4CC(=O)N(C)C3CC(O)C3)[nH]c3nccc(c23)-c2cc(F)ccc21 (stereo partly drawn) [Example 98, 2-[(1R,5S)-3-(10-fluoro-7-methyl-6,7-dihydro-4H-3,4,7-triazadibenzo[cd,f]azulen-5-yl)-8-azabicyclo[3.2.1]oct-2-en-8-yl]-N-(3-hydroxycyclobutyl)-N-methylacetamide]	6.82	7.14
CN1Cc2c(C3=CC4CCCC(C3)N4S(C)(=O)=O)[nH]c3nccc(c23)-c2cc(F)ccc21 (centres unmarked) [Example 99, 10-fluoro-7-methyl-5-[9-(methylsulfonyl)-9-azabicyclo[3.3.1]non-2-en-3-yl]-6,7-dihydro-4H-3,4,7-triazadibenzo[cd,f]azulene]	5.59	6.40
CNC(=O)N1C2C=C(c3[nH]c4nccc5c4c3CN(C)c3ccc(F)cc3-5)CC1CCC2 (centres unmarked) [Example 100, 3-(10-fluoro-7-methyl-6,7-dihydro-4H-3,4,7-triazadibenzo[cd,f]azulen-5-yl)-N-methyl-9-azabicyclo[3.3.1]non-2-ene-9-carboxamide]	5.92	7.08
CN(C)C(=O)CN1C2C=C(c3[nH]c4nccc5c4c3CN(C)c3ccc(F)cc3-5)CC1CCC2 (centres unmarked) [Example 101, 2-[3-(10-fluoro-7-methyl-6,7-dihydro-4H-3,4,7-triazadibenzo[cd,f]azulen-5-yl)-9-azabicyclo[3.3.1]non-2-en-9-yl]-N,N-dimethylacetamide]	7.04	6.96
CN1Cc2c(C3=CC4CCCC(C3)N4C(=O)CC#N)[nH]c3nccc(c23)-c2cc(F)ccc21 (centres unmarked) [Example 102, 3-[3-(10-fluoro-7-methyl-6,7-dihydro-4H-3,4,7-triazadibenzo[cd,f]azulen-5-yl)-9-azabicyclo[3.3.1]non-2-en-9-yl]-3-oxopropanenitrile]	6.21	7.36
CN(CCO)C(=O)CN1C2C=C(c3[nH]c4nccc5c4c3CN(C)c3ccc(F)cc3-5)CC1CCC2 (centres unmarked) [Example 103, 2-[3-(10-fluoro-7-methyl-6,7-dihydro-4H-3,4,7-triazadibenzo[cd,f]azulen-5-yl)-9-azabicyclo[3.3.1]non-2-en-9-yl]-N-(2-hydroxyethyl)-N-methylacetamide]	7.29	7.07
CN1Cc2c(C3=CC4CCCC(C3)N4CC(=O)N3CCC[C@H]3CO)[nH]c3nccc(c23)-c2cc(F)ccc21 (stereo partly drawn) [Example 104, 2-[3-(10-fluoro-7-methyl-6,7-dihydro-4H-3,4,7-triazadibenzo[cd,f]azulen-5-yl)-9-azabicyclo[3.3.1]non-2-en-9-yl]-1-[(2S)-2-(hydroxymethyl)pyrrolidin-1-yl]ethanone]	7.19	7.24
CN1Cc2c(C3=CC4CCCC(C3)N4CC(=O)N3CC(O)C3)[nH]c3nccc(c23)-c2cc(F)ccc21 (centres unmarked) [Example 105, 2-[3-(10-fluoro-7-methyl-6,7-dihydro-4H-3,4,7-triazadibenzo[cd,f]azulen-5-yl)-9-azabicyclo[3.3.1]non-2-en-9-yl]-1-(3-hydroxyazetidin-1-yl)ethanone]	6.72	7.01
CN1Cc2c(C3=CC4CCCC(C3)N4CC(=O)N(C)C3CC(O)C3)[nH]c3nccc(c23)-c2cc(F)ccc21 (centres unmarked) [Example 106, 2-[3-(10-fluoro-7-methyl-6,7-dihydro-4H-3,4,7-triazadibenzo[cd,f]azulen-5-yl)-9-azabicyclo[3.3.1]non-2-en-9-yl]-N-(3-hydroxycyclobutyl)-N-methylacetamide]	6.89	7.18
CN(CC(O)CO)C(=O)CN1C2C=C(c3[nH]c4nccc5c4c3CN(C)c3ccc(F)cc3-5)CC1CCC2 (centres unmarked) [Example 107, N-(2,3-dihydroxypropyl)-2-[3-(10-fluoro-7-methyl-6,7-dihydro-4H-3,4,7-triazadibenzo[cd,f]azulen-5-yl)-9-azabicyclo[3.3.1]non-2-en-9-yl]-N-methylacetamide]	6.96	6.96
CN1Cc2c(C3=CC4CCCC(C3)N4CC(=O)O)[nH]c3nccc(c23)-c2cc(F)ccc21 (centres unmarked) [Example 108, [3-(10-fluoro-7-methyl-6,7-dihydro-4H-3,4,7-triazadibenzo[cd,f]azulen-5-yl)-9-azabicyclo[3.3.1]non-2-en-9-yl]acetic acid]	5.92	6.96
CN1Cc2c(C3=CCN(S(C)(=O)=O)CC3(C)C)[nH]c3nccc(c23)-c2cc(F)ccc21 [Example 113, 5-[3,3-dimethyl-1-(methylsulfonyl)-1,2,3,6-tetrahydropyridin-4-yl]-10-fluoro-7-methyl-6,7-dihydro-4H-3,4,7-triazadibenzo[cd,f]azulene]	5.57	6.19

Second part, the compound after the results:

pIC50 [1]	pIC50 [2]	Compound
6.96	7.34	CN1Cc2c(C3=CCCNC3)[nH]c3nccc(c23)-c2cc(F)ccc21 [Example 93, 10-fluoro-7-methyl-5-(1,2,5,6-tetrahydropyridin-3-yl)-6,7-dihydro-4H-3,4,7-triazadibenzo[cd,f]azulene]
7.04	7.00	CN1Cc2c(C3=CC4CN(CC(=O)N(C)C5CC(O)C5)CC4C3)[nH]c3nccc(c23)-c2cc(F)ccc21 (centres unmarked) [Example 94, 2-[5-(10-fluoro-7-methyl-6,7-dihydro-4H-3,4,7-triazadibenzo[cd,f]azulen-5-yl)-3,3a,4,6a-tetrahydrocyclopenta[c]pyrrol-2 (1H)-yl]-N-(3-hydroxycyclobutyl)-N-methylacetamide]
5.92	6.89	CN1Cc2c(C3=CCCN(S(C)(=O)=O)C3)[nH]c3nccc(c23)-c2cc(F)ccc21 [Example 95, 10-fluoro-7-methyl-5-[1-(methylsulfonyl)-1,2,5,6-tetrahydropyridin-3-yl]-6,7-dihydro-4H-3,4,7-triazadibenzo[cd,f]azulene]
6.17	6.74	CNC(=O)N1CCC=C(c2[nH]c3nccc4c3c2CN(C)c2ccc(F)cc2-4)C1 [Example 96, 5-(10-fluoro-7-methyl-6,7-dihydro-4H-3,4,7-triazadibenzo[cd,f]azulen-5-yl)-N-methyl-3,6-dihydropyridine-1(2H)-carboxamide]
6.24	6.38	CN(C)C(=O)CN1CCC=C(c2[nH]c3nccc4c3c2CN(C)c2ccc(F)cc2-4)C1 [Example 97, 2-[5-(10-fluoro-7-methyl-6,7-dihydro-4H-3,4,7-triazadibenzo[cd,f]azulen-5-yl)-3,6-dihydropyridin-1(2H)-yl]-N,N-dimethylacetamide]
8.00	7.37	CN1Cc2c(C3=CCN(CC(=O)N(C)C4CC(O)C4)CC3)[nH]c3ncc(F)c(c23)-c2cc(F)ccc21 (centres unmarked) [Example 109, 2-[4-(1,10-difluoro-7-methyl-6,7-dihydro-4H-3,4,7-triazadibenzo[cd,f]azulen-5-yl)-3,6-dihydropyridin-1(2H)-yl]-N-(3-hydroxycyclobutyl)-N-methylacetamide]
7.85	7.35	CN(CC(O)CO)C(=O)CN1CC=C(c2[nH]c3ncc(F)c4c3c2CN(C)c2ccc(F)cc2-4)CC1 (centres unmarked) [Example 110, 2-[4-(1,10-difluoro-7-methyl-6,7-dihydro-4H-3,4,7-triazadibenzo[cd,f]azulen-5-yl)-3,6-dihydropyridin-1(2H)-yl]-N-(2,3-dihydroxypropyl)-N-methylacetamide]
5.26	5.80	CN1Cc2c(C3=CCN(CC(=O)O)CC3(C)C)[nH]c3nccc(c23)-c2cc(F)ccc21 [Example 111, [4-(10-fluoro-7-methyl-6,7-dihydro-4H-3,4,7-triazadibenzo[cd,f]azulen-5-yl)-3,3-dimethyl-3,6-dihydropyridin-1(2H)-yl]acetic acid]
5.47	6.06	CN(C)C(=O)CN1CC=C(c2[nH]c3nccc4c3c2CN(C)c2ccc(F)cc2-4)C(C)(C)C1 [Example 114, 2-[4-(10-fluoro-7-methyl-6,7-dihydro-4H-3,4,7-triazadibenzo[cd,f]azulen-5-yl)-3,3-dimethyl-3,6-dihydropyridin-1(2H)-yl]-N,N-dimethylacetamide]
5.59	6.02	CN1Cc2c(C3=CCN(CC(=O)N4CCC[C@H]4CO)CC3(C)C)[nH]c3nccc(c23)-c2cc(F)ccc21 [Example 115, 2-[4-(10-fluoro-7-methyl-6,7-dihydro-4H-3,4,7-triazadibenzo[cd,f]azulen-5-yl)-3,3-dimethyl-3,6-dihydropyridin-1(2H)-yl]-1-[(2S)-2-(hydroxymethyl)pyrrolidin-1-yl]ethanone]
5.77	6.05	CN(CCO)C(=O)CN1CC=C(c2[nH]c3nccc4c3c2CN(C)c2ccc(F)cc2-4)C(C)(C)C1 [Example 116, 2-[4-(10-fluoro-7-methyl-6,7-dihydro-4H-3,4,7-triazadibenzo[cd,f]azulen-5-yl)-3,3-dimethyl-3,6-dihydropyridin-1(2H)-yl]-N-(2-hydroxyethyl)-N-methylacetamide]
5.62	6.02	CN1Cc2c(C3=CCN(CC(=O)N4CC(O)C4)CC3(C)C)[nH]c3nccc(c23)-c2cc(F)ccc21 [Example 117, 2-[4-(10-fluoro-7-methyl-6,7-dihydro-4H-3,4,7-triazadibenzo[cd,f]azulen-5-yl)-3,3-dimethyl-3,6-dihydropyridin-1(2H)-yl]-1-(3-hydroxyazetidin-1-yl)ethanone]
5.59	5.92	CN1Cc2c(C3=CCN(CC(=O)N(C)C4CC(O)C4)CC3(C)C)[nH]c3nccc(c23)-c2cc(F)ccc21 (centres unmarked) [Example 118, 2-[4-(10-fluoro-7-methyl-6,7-dihydro-4H-3,4,7-triazadibenzo[cd,f]azulen-5-yl)-3,3-dimethyl-3,6-dihydropyridin-1(2H)-yl]-N-(3-hydroxycyclobutyl)-N-methylacetamide]
